{"source": "PubChem BioAssay AID192", "about": "(DTP/NCI, 2004)", "tested_on": "BDF1 mice, B16 melanoma ip, median survival T/C", "experiment": "NCI In Vivo Anticancer Drug Screen. Data for tumor model B16 Melanoma (intraperitoneal) in B6D2F1 (BDF1) mice", "details": "endpoint: median survival time, higher = longer survival", "summary_of_the_method": "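The ratio T/C compares compound-treated mice with vehicle-treated controls, using survival or tumor size as the endpoint in a transplantable tumor model.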", "key": {"[1]": {"details": "dose: 50.0 mg/kg/injection, schedule: Q01DX009 (ip), vehicle: saline with Tween-80"}, "[2]": {"details": "dose: 100.0 mg/kg/injection, schedule: Q01DX009 (ip), vehicle: saline with Tween-80"}, "[3]": {"details": "dose: 200.0 mg/kg/injection, schedule: Q01DX009 (ip), vehicle: saline with Tween-80"}}, "note": "Values joined by “and” are separate entries in the source; they are usually repeats but may differ in a detail not shown here. Identical values can stand only once. Inconclusive results and toxic doses are left out.", "data": [{"smiles": "O=NN(CCF)C(=O)NCCO", "values": [{"measurement": "T/C", "setting": "dose: 1.88 mg/kg/injection, schedule: Q01DX001 (ip), vehicle: saline", "result": "115 % of control"}, {"measurement": "T/C", "setting": "dose: 3.75 mg/kg/injection, schedule: Q01DX001 (ip), vehicle: saline", "result": "114 % of control"}, {"measurement": "T/C", "setting": "dose: 15.0 mg/kg/injection, schedule: Q01DX001 (ip), vehicle: saline", "result": "172 % of control"}, {"measurement": "T/C", "setting": "dose: 30.0 mg/kg/injection, schedule: Q01DX001 (ip), vehicle: saline", "result": "231 % of control"}, {"measurement": "T/C", "setting": "dose: 60.0 mg/kg/injection, schedule: Q01DX001 (ip), vehicle: saline", "result": "212 % of control"}]}, {"smiles": "CN(C)CCN1C(=O)c2cccc3cc(N)cc(c23)C1=O", "values": [{"measurement": "T/C", "setting": "dose: 1.0 mg/kg/injection, schedule: Q01DX009 (ip), vehicle: acid diluted with saline", "result": "99 % of control"}, {"measurement": "T/C", "setting": "dose: 2.0 mg/kg/injection, schedule: Q01DX009 (ip), vehicle: acid diluted with saline", "result": "110 % of control"}, {"measurement": "T/C", "setting": "dose: 4.0 mg/kg/injection, schedule: Q01DX009 (ip), vehicle: acid diluted with saline", "result": "114 % of control"}, {"measurement": "T/C", "setting": "dose: 8.0 mg/kg/injection, schedule: Q01DX009 (ip), vehicle: acid diluted with saline", "result": "122 % of control"}, {"measurement": "T/C", "setting": "dose: 16.0 mg/kg/injection, schedule: Q01DX009 (ip), vehicle: acid diluted with saline", "result": "155 % of control"}]}, {"smiles": "CCCN(CCC)CCCCCCO", "values": [{"measurement": "T/C", "setting": "[1]", "result": "102 % of control"}, {"measurement": "T/C", "setting": "[2]", "result": "102 % of control"}, {"measurement": "T/C", "setting": "[3]", "result": "99 % of control"}]}, {"smiles": "CC(=O)Nc1ccc(N=Nc2c(O)c(S(=O)(=O)O)cc3cc(S(=O)(=O)O)ccc23)cc1", "values": [{"measurement": "T/C", "setting": "[3]", "result": "100 % of control"}]}, {"smiles": "CCCCCCCCC(O)CCCCC", "note": "(stereo not given)", "values": [{"measurement": "T/C", "setting": "dose: 100.0 mg/kg/injection, schedule: Q01DX009 (ip), vehicle: Klucel (hydroxypropylcellulose) (HPC)", "result": "100 % of control"}, {"measurement": "T/C", "setting": "dose: 200.0 mg/kg/injection, schedule: Q01DX009 (ip), vehicle: Klucel (hydroxypropylcellulose) (HPC)", "result": "94 % of control"}, {"measurement": "T/C", "setting": "dose: 400.0 mg/kg/injection, schedule: Q01DX009 (ip), vehicle: Klucel (hydroxypropylcellulose) (HPC)", "result": "98 % of control"}]}, {"smiles": "C[CH2][Pb]([CH2]C)([CH2]C)[O]C(=O)CBr", "values": [{"measurement": "T/C", "setting": "dose: 0.75 mg/kg/injection, schedule: Q01DX009 (ip), vehicle: Klucel (hydroxypropylcellulose) (HPC)", "result": "100 % of control"}, {"measurement": "T/C", "setting": "dose: 1.5 mg/kg/injection, schedule: Q01DX009 (ip), vehicle: Klucel (hydroxypropylcellulose) (HPC)", "result": "112 % of control"}, {"measurement": "T/C", "setting": "dose: 3.0 mg/kg/injection, schedule: Q01DX009 (ip), vehicle: Klucel (hydroxypropylcellulose) (HPC)", "result": "105 % of control and 113 % of control"}]}, {"smiles": "O=C(NC(CSCc1ccccc1)C(=O)O)OCc1ccccc1", "note": "(stereo not given)", "values": [{"measurement": "T/C", "setting": "dose: 12.5 mg/kg/injection, schedule: Q01DX009 (ip), vehicle: saline with Tween-80", "result": "107 % of control"}, {"measurement": "T/C", "setting": "dose: 25.0 mg/kg/injection, schedule: Q01DX009 (ip), vehicle: saline with Tween-80", "result": "107 % of control"}, {"measurement": "T/C", "setting": "[1]", "result": "98 % of control and 103 % of control"}, {"measurement": "T/C", "setting": "[2]", "result": "87 % of control"}]}, {"smiles": "CN1CCC=C(CN2c3ccccc3Sc3ccccc32)C1", "values": [{"measurement": "T/C", "setting": "dose: 25.0 mg/kg/injection, schedule: Q01DX009 (ip), vehicle: saline", "result": "104 % of control"}, {"measurement": "T/C", "setting": "dose: 50.0 mg/kg/injection, schedule: Q01DX009 (ip), vehicle: saline", "result": "106 % of control"}]}, {"smiles": "Cn1c(CCCC(=O)O)nc2cc(N(CCCl)CCCl)ccc21", "values": [{"measurement": "T/C", "setting": "dose: 1.0 mg/kg/injection, schedule: Q01DX009 (ip), vehicle: saline", "result": "115 % of control"}, {"measurement": "T/C", "setting": "dose: 2.0 mg/kg/injection, schedule: Q01DX009 (ip), vehicle: saline", "result": "94 % of control"}, {"measurement": "T/C", "setting": "dose: 2.5 mg/kg/injection, schedule: Q01DX009 (ip), vehicle: saline", "result": "157 % of control"}, {"measurement": "T/C", "setting": "dose: 4.0 mg/kg/injection, schedule: Q01DX009 (ip), vehicle: saline", "result": "103 % of control"}, {"measurement": "T/C", "setting": "dose: 5.0 mg/kg/injection, schedule: Q01DX009 (ip), vehicle: saline", "result": "152 % of control"}, {"measurement": "T/C", "setting": "dose: 6.0 mg/kg/injection, schedule: Q01DX009 (ip), vehicle: saline", "result": "101 % of control"}, {"measurement": "T/C", "setting": "dose: 8.0 mg/kg/injection, schedule: Q01DX009 (ip), vehicle: saline", "result": "159 % of control"}, {"measurement": "T/C", "setting": "dose: 10.0 mg/kg/injection, schedule: Q01DX009 (ip), vehicle: saline", "result": "157 % of control and 186 % of control"}, {"measurement": "T/C", "setting": "dose: 12.0 mg/kg/injection, schedule: Q01DX009 (ip), vehicle: saline", "result": "115 % of control"}, {"measurement": "T/C", "setting": "dose: 20.0 mg/kg/injection, schedule: Q01DX009 (ip), vehicle: saline", "result": "89 % of control"}]}, {"smiles": "COC1=C(OC)C(=O)C(C/C=C(\\C)CC/C=C(\\C)CC/C=C(\\C)CC/C=C(\\C)CC/C=C(\\C)CC/C=C(\\C)CC/C=C(\\C)CC/C=C(\\C)CCC=C(C)C)=C(C)C1=O", "values": [{"measurement": "T/C", "setting": "dose: 10.0 mg/kg/injection, schedule: Q01DX025 (ip), vehicle: saline with Tween-80", "result": "81 % of control"}, {"measurement": "T/C", "setting": "dose: 20.0 mg/kg/injection, schedule: Q01DX025 (ip), vehicle: saline with Tween-80", "result": "102 % of control"}, {"measurement": "T/C", "setting": "dose: 40.0 mg/kg/injection, schedule: Q01DX025 (ip), vehicle: saline with Tween-80", "result": "100 % of control"}]}, {"smiles": "CCOC(=O)CCCc1c[nH]c2ccccc12", "values": [{"measurement": "T/C", "setting": "[2]", "result": "107 % of control"}, {"measurement": "T/C", "setting": "dose: 100.0 mg/kg/injection, schedule: Q04DX003 (ip), vehicle: saline with Tween-80", "result": "109 % of control"}, {"measurement": "T/C", "setting": "[3]", "result": "115 % of control"}, {"measurement": "T/C", "setting": "dose: 200.0 mg/kg/injection, schedule: Q04DX003 (ip), vehicle: saline with Tween-80", "result": "93 % of control"}, {"measurement": "T/C", "setting": "dose: 400.0 mg/kg/injection, schedule: Q01DX009 (ip), vehicle: saline with Tween-80", "result": "107 % of control"}, {"measurement": "T/C", "setting": "dose: 400.0 mg/kg/injection, schedule: Q04DX003 (ip), vehicle: saline with Tween-80", "result": "95 % of control"}]}, {"smiles": "Cc1ccc([N+](=O)[O-])cc1NC(=O)Oc1ccc(Cl)cc1", "values": [{"measurement": "T/C", "setting": "dose: 25.0 mg/kg/injection, schedule: Q04DX009 (ip), vehicle: Klucel (hydroxypropylcellulose) (HPC)", "result": "94 % of control"}, {"measurement": "T/C", "setting": "dose: 50.0 mg/kg/injection, schedule: Q04DX009 (ip), vehicle: Klucel (hydroxypropylcellulose) (HPC)", "result": "104 % of control"}, {"measurement": "T/C", "setting": "dose: 100.0 mg/kg/injection, schedule: Q04DX003 (ip), vehicle: carboxymethylcellulose (CMC)", "result": "93 % of control"}, {"measurement": "T/C", "setting": "dose: 100.0 mg/kg/injection, schedule: Q04DX009 (ip), vehicle: Klucel (hydroxypropylcellulose) (HPC)", "result": "96 % of control"}, {"measurement": "T/C", "setting": "dose: 400.0 mg/kg/injection, schedule: Q04DX003 (ip), vehicle: carboxymethylcellulose (CMC)", "result": "86 % of control"}]}]}
